Results reported in US5939458A, “Reduction of hair growth” (priority 1997, dated 1999).
Values belong to the compound of their own block, whether it stands above or below them.

Tests used:
[1] = system: Leucine tRNA synthetase (hair follicle extract); assay: Hair follicle aminoacyl-tRNA synthetase inhibition, 14C leucine incorporation; format: biochemical; conditions: 0.96 μmole/ml inhibitor (leucinamide: similar concentration); 37° C., 60 minutes
Description: Inhibition of hair follicle aminoacyl-tRNA synthetase was determined using a modification of the procedure described by Hampel et. al (Aminoacyl-tRNASynthetases from Cultured CHO Cells (1979) Methods in Enzymology, Vol. LIX, pp 229-234). A reaction mixture containing the following was used for each assay: 50 mM Tris (pH 7.4), 15 mM MgCl2, 0.5 mM EDTA (adjusted to pH 7), 5 mM ATP (adjusted to pH 7, 0.35 mM CTP, 20 μM ^14 C amino acid and tRNA (50 μg/ml). Leucine and serine tRNA synthetase were assayed with a pH 8.6 buffer and a MgCl2 concentration of 8 mM. The reaction mixture is mixed with the hair follicle extract so that the final assay volume is 100 μl. Typically, 90-95 μl of the reaction mixture was mixed with 5-10 μl of the hair follicles extract. The reaction was carried out at 37° C. for 60 minutes. The reaction was terminated by removing the reaction mixture and placing it on a piece of filter paper that had been soaked with 10% trichloroacetic acid. The filter paper was washed 3 times in 10% trichloroacetic acid and 3 times in 5% trichloroacetic acid. The filter paper was dried and the insoluble radioactivity, corresponding to the ^14 C-aminoacyl-tRNA, was counted in a scintillation counter.
The incorporation of the ^14 C amino acid varied from 178 dpm/mM to 3,093 dpm/mM in the assays of the amino acids mentioned above. […]

flank organ hair growth = assay: Golden Syrian hamster assay (flank organ hair mass after thirteen topical applications); format: in vivo
Description: Male intact Golden Syrian hamsters are considered acceptable models for human beard hair growth in that they display oval shaped flank organs, one on each side, each about 8 mm. in major diameter, which grow thick black and coarse hair similar to human beard hair. These organs produce hair in response to androgens in the hamster. To evaluate the effectiveness of a composition including an aminoacyl-tRNA synthetase inhibitor, the flank organs of each of a group of hamsters are shaved. To one organ of each animal 10 μl. of vehicle alone once a day is applied, while to the other organ of each animal an equal amount of vehicle containing a aminoacyl-tRNA inhibitor is applied. After thirteen applications (one application per day for five days a week), the flank organs are shaved and the amount of recovered hair (hair mass) from each is weighed. Percent-reduction of hair growth is calculated by subtracting the hair mass (mg) value of the test compound treated side from the hair mass value of the vehicle treated side; the delta value obtained is then divided by the hair mass value of the vehicle treated side, and the resultant number is multiplied by 100.
The above-described assay will be referred to herein as the "Golden Syrian hamster" assay. Preferred compositions provide a reduction in hair growth of at least about 25%, more preferably at least about 50%, and most preferably at least about 60% when tested in the Golden Syrian hamster assay.

[2] = Table 2 dose response, dose 1%, pH 5.5, vehicle 90% H2O, 6% dipropylene glycol, 4% ethanol
[3] = Table 2 dose response, dose 5%, pH 6.5, vehicle 90% H2O, 6% dipropylene glycol, 4% ethanol
[4] = Table 2 dose response, dose 7.5%, pH 6.5, vehicle 90% H2O, 6% dipropylene glycol, 4% ethanol
[5] = Table 1, dose 15%, vehicle B, pH 6.5

inhibition of leucine incorporation [1]: 83%
SMILES: CC(C)CC(N)C(N)=O (centres unmarked) [lucinamide]

SMILES: N[C@@H](CSC(c1ccccc1)(c1ccccc1)c1ccccc1)C(=O)O [S-trityl-L-cysteine]
% Inhibition of hair growth (flank organ hair growth; [2]): 35 ± 9% | Treated (mg) hair mass (flank organ hair growth; [2]): 0.88 ± .10 mg | % Inhibition of hair growth (flank organ hair growth; [3]): 56 ± 6% | Treated (mg) hair mass (flank organ hair growth; [3]): 0.90 ± .17 mg | % Inhibition of hair growth (flank organ hair growth; [4]): 80 ± 6% | Treated (mg) hair mass (flank organ hair growth; [4]): 0.35 ± .10 mg | Dose response of hair growth reduction (flank organ hair growth; increasing the concentration of the inhibitor in the composition): increased hair growth reduction

SMILES: CSCCC(C)(N)C(=O)O (racemic) [α-methyl-DL-methionine]
% Inhibition of hair growth (flank organ hair growth; [5]): 31 ± 7% | Treated (mg) hair mass (flank organ hair growth; [5]): 1.10 ± .15 mg

inhibition of leucine incorporation [1]: 18%
SMILES: CC(C)C[C@H](N)CO [L-leucinol]
